Measured values from patent publication USRE42890E1, “Furazanobenzimidazoles” (Basilea Pharmaceutica AG, priority 2003, dated 2011).

system: Jily; test: MTS proliferation assay, Jily; format: cell-based; conditions: 72 h incubation, read-out: MTS proliferation assay IC 50 Jily
Procedure: Cell lines are cultured in RPMI-1640 tissue culture medium containing either 5% or 10% fetal calf serum, 0.05 mM 2-mercaptoethanol, 2 mM glutamine and penicillin/streptomycin 50 μg/ml (complete medium) (Sigma, Buchs, Switzerland). General growth conditions are 37° C. and 7.5% CO2.
The assay is performed in 96 well tissue culture plates. The cells (range: 1.5*10^3-10^4) are seeded out in 80 μl complete medium 24 h prior to compound treatment. The test compounds are added in 20 μl complete medium containing max 5% DMSO. The final compound concentrations in the assays are 10 μM, 3 μM, 1 μM and 0.3 μM, respectively. The assay plates are incubated for 72 h at culture conditions. The MTS reagent is prepared according to the manufacturer's protocol (Promega G1111). 20 μl MTS reagent are added to each well, the assay plates are quickly spun and incubated for another 3 h at culture conditions. Subsequently, the plates are shortly shaked and absorption measured with a microplate-reader at 492 nm.

Row | Structure (SMILES) | IC50 [nM]
1 | Nc1nonc1-c1nc2ccccc2n1COc1cccc(C(F)(F)F)c1 [Example 103] | 10 to 100
2 | Nc1nonc1-c1nc2ccccc2n1COc1cc(C(F)(F)F)cc(C(F)(F)F)c1 [Example 102] | 100 to 1000

system: HT1080; test: MTS proliferation assay, HT1080; format: cell-based, human; conditions: HT1080, 72 h incubation; read-out: MTS proliferation assay IC 50 HT1080
Procedure, shortened: (§1)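 Proliferation: RPMI-1640/FCS complete medium, 37 °C, 7.5% CO2, cells plated 24 h pre-dose; compounds at 10, 3, 1, 0.3 μM final for 72 h; MTS, 492 nm.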

Row | Structure (SMILES) | IC50 [nM]
3 | Nc1nonc1-c1nc2ccccc2n1COc1cccc(C(F)(F)F)c1 [Example 103] | 100 to 1000
4 | Nc1nonc1-c1nc2ccccc2n1COc1cc(C(F)(F)F)cc(C(F)(F)F)c1 [Example 102] | > 1000

system: HeLa; test: MTS proliferation assay, HeLa; format: cell-based, human; conditions: 72 h incubation, read-out: MTS proliferation assay IC 50 HeLa
Procedure, shortened: as §1

Row | Structure (SMILES) | IC50 [nM]
5 | Nc1nonc1-c1nc2ccccc2n1COc1cccc(C(F)(F)F)c1 [Example 103] | 100 to 1000
6 | Nc1nonc1-c1nc2ccccc2n1COc1cc(C(F)(F)F)cc(C(F)(F)F)c1 [Example 102] | > 1000

system: MRC5; test: MTS proliferation assay, MRC5; format: cell-based; conditions: MRC5, 72 h incubation; read-out: MTS proliferation assay IC 50 MRC5
Procedure, shortened: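 Viability after 72 h compound exposure at 10, 3, 1 and 0.3 μM final was scored by MTS absorbance (492 nm, 3 h reagent incubation), with cells kept in RPMI-1640 containing 5% or 10% fetal calf serum.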

Row | Structure (SMILES) | IC50 [nM]
7 | Nc1nonc1-c1nc2ccccc2n1COc1cccc(C(F)(F)F)c1 [Example 103] | 100 to 1000
8 | Nc1nonc1-c1nc2ccccc2n1COc1cc(C(F)(F)F)cc(C(F)(F)F)c1 [Example 102] | 100 to 1000

system: adherent cells or suspension cells; test: Hoechst 33342 nuclear staining (fraction of apoptotic nuclei); format: cell-based; set-up: key: 0 relating to no activity; 1 relating to weak activity comprising less than 70% of the cells; score 2 relating to strong activity comprising more than 70% of the cells; conditions: H460, conc 0.01 μm

Row | Structure (SMILES) | Hoechst 33342 nuclear staining score
9 | Nc1nonc1-c1nc2ccccc2n1COc1cccc(C(F)(F)F)c1 [Example 103] | 0
10 | Nc1nonc1-c1nc2ccccc2n1COc1cc(C(F)(F)F)cc(C(F)(F)F)c1 [Example 102] | 0

same assay, conditions: H460, conc 0.1 μm

Row | Structure (SMILES) | Hoechst 33342 nuclear staining score
11 | Nc1nonc1-c1nc2ccccc2n1COc1cccc(C(F)(F)F)c1 [Example 103] | 0
12 | Nc1nonc1-c1nc2ccccc2n1COc1cc(C(F)(F)F)cc(C(F)(F)F)c1 [Example 102] | 0

same assay, conditions: H460, conc 1 μm

Row | Structure (SMILES) | Hoechst 33342 nuclear staining score
13 | Nc1nonc1-c1nc2ccccc2n1COc1cccc(C(F)(F)F)c1 [Example 103] | 2 (score 2 relating to strong activity comprising more than 70% of the cells)
14 | Nc1nonc1-c1nc2ccccc2n1COc1cc(C(F)(F)F)cc(C(F)(F)F)c1 [Example 102] | 1 (1 relating to weak activity comprising less than 70% of the cells)

same assay, conditions: HeLa, conc 0.01 μm

Row | Structure (SMILES) | Hoechst 33342 nuclear staining score
15 | Nc1nonc1-c1nc2ccccc2n1COc1cccc(C(F)(F)F)c1 [Example 103] | 0
16 | Nc1nonc1-c1nc2ccccc2n1COc1cc(C(F)(F)F)cc(C(F)(F)F)c1 [Example 102] | 0

same assay, conditions: HeLa, conc 0.1 μm

Row | Structure (SMILES) | Hoechst 33342 nuclear staining score
17 | Nc1nonc1-c1nc2ccccc2n1COc1cccc(C(F)(F)F)c1 [Example 103] | 0
18 | Nc1nonc1-c1nc2ccccc2n1COc1cc(C(F)(F)F)cc(C(F)(F)F)c1 [Example 102] | 0

same assay, conditions: HeLa, conc 1 μm

Row | Structure (SMILES) | Hoechst 33342 nuclear staining score
19 | Nc1nonc1-c1nc2ccccc2n1COc1cccc(C(F)(F)F)c1 [Example 103] | 2 (score 2 relating to strong activity comprising more than 70% of the cells)
20 | Nc1nonc1-c1nc2ccccc2n1COc1cc(C(F)(F)F)cc(C(F)(F)F)c1 [Example 102] | 0

same assay, conditions: Jily, conc 0.01 μm

Row | Structure (SMILES) | Hoechst 33342 nuclear staining score
21 | Nc1nonc1-c1nc2ccccc2n1COc1cccc(C(F)(F)F)c1 [Example 103] | 0
22 | Nc1nonc1-c1nc2ccccc2n1COc1cc(C(F)(F)F)cc(C(F)(F)F)c1 [Example 102] | 0

same assay, conditions: Jily, conc 0.1 μm

Row | Structure (SMILES) | Hoechst 33342 nuclear staining score
23 | Nc1nonc1-c1nc2ccccc2n1COc1cccc(C(F)(F)F)c1 [Example 103] | 0
24 | Nc1nonc1-c1nc2ccccc2n1COc1cc(C(F)(F)F)cc(C(F)(F)F)c1 [Example 102] | 0

same assay, conditions: Jily, conc 1 μm

Row | Structure (SMILES) | Hoechst 33342 nuclear staining score
25 | Nc1nonc1-c1nc2ccccc2n1COc1cccc(C(F)(F)F)c1 [Example 103] | 2 (score 2 relating to strong activity comprising more than 70% of the cells)
26 | Nc1nonc1-c1nc2ccccc2n1COc1cc(C(F)(F)F)cc(C(F)(F)F)c1 [Example 102] | 1 (1 relating to weak activity comprising less than 70% of the cells)

same assay, conditions: Jurkat, conc 0.01 μm

Row | Structure (SMILES) | Hoechst 33342 nuclear staining score
27 | Nc1nonc1-c1nc2ccccc2n1COc1cccc(C(F)(F)F)c1 [Example 103] | 0
28 | Nc1nonc1-c1nc2ccccc2n1COc1cc(C(F)(F)F)cc(C(F)(F)F)c1 [Example 102] | 0

same assay, conditions: Jurkat, conc 0.1 μm

Row | Structure (SMILES) | Hoechst 33342 nuclear staining score
29 | Nc1nonc1-c1nc2ccccc2n1COc1cccc(C(F)(F)F)c1 [Example 103] | 1 (1 relating to weak activity comprising less than 70% of the cells)
30 | Nc1nonc1-c1nc2ccccc2n1COc1cc(C(F)(F)F)cc(C(F)(F)F)c1 [Example 102] | 0

same assay, conditions: Jurkat, conc 1 μm

Row | Structure (SMILES) | Hoechst 33342 nuclear staining score
31 | Nc1nonc1-c1nc2ccccc2n1COc1cccc(C(F)(F)F)c1 [Example 103] | 2 (score 2 relating to strong activity comprising more than 70% of the cells)
32 | Nc1nonc1-c1nc2ccccc2n1COc1cc(C(F)(F)F)cc(C(F)(F)F)c1 [Example 102] | 2 (score 2 relating to strong activity comprising more than 70% of the cells)

same assay, conditions: MRC5, conc 0.01 μm

Row | Structure (SMILES) | Hoechst 33342 nuclear staining score
33 | Nc1nonc1-c1nc2ccccc2n1COc1cccc(C(F)(F)F)c1 [Example 103] | 0
34 | Nc1nonc1-c1nc2ccccc2n1COc1cc(C(F)(F)F)cc(C(F)(F)F)c1 [Example 102] | 0

same assay, conditions: MRC5, conc 0.1 μm

Row | Structure (SMILES) | Hoechst 33342 nuclear staining score
35 | Nc1nonc1-c1nc2ccccc2n1COc1cccc(C(F)(F)F)c1 [Example 103] | 0
36 | Nc1nonc1-c1nc2ccccc2n1COc1cc(C(F)(F)F)cc(C(F)(F)F)c1 [Example 102] | 0

same assay, conditions: MRC5, conc 1 μm

Row | Structure (SMILES) | Hoechst 33342 nuclear staining score
37 | Nc1nonc1-c1nc2ccccc2n1COc1cccc(C(F)(F)F)c1 [Example 103] | 1 (1 relating to weak activity comprising less than 70% of the cells)
38 | Nc1nonc1-c1nc2ccccc2n1COc1cc(C(F)(F)F)cc(C(F)(F)F)c1 [Example 102] | 0

same assay, conditions: PBLs, conc 0.01 μm

Row | Structure (SMILES) | Hoechst 33342 nuclear staining score
39 | Nc1nonc1-c1nc2ccccc2n1COc1cccc(C(F)(F)F)c1 [Example 103] | 0
40 | Nc1nonc1-c1nc2ccccc2n1COc1cc(C(F)(F)F)cc(C(F)(F)F)c1 [Example 102] | 0

same assay, conditions: PBLs, conc 0.1 μm

Row | Structure (SMILES) | Hoechst 33342 nuclear staining score
41 | Nc1nonc1-c1nc2ccccc2n1COc1cccc(C(F)(F)F)c1 [Example 103] | 0
42 | Nc1nonc1-c1nc2ccccc2n1COc1cc(C(F)(F)F)cc(C(F)(F)F)c1 [Example 102] | 0

same assay, conditions: PBLs, conc 1 μm

Row | Structure (SMILES) | Hoechst 33342 nuclear staining score
43 | Nc1nonc1-c1nc2ccccc2n1COc1cccc(C(F)(F)F)c1 [Example 103] | 0
44 | Nc1nonc1-c1nc2ccccc2n1COc1cc(C(F)(F)F)cc(C(F)(F)F)c1 [Example 102] | 0
